# Results published in US20070166547A1, “Use of a layer consisting of hydrophobic linear, or two-dimensional polycyclic aromatics as a barrier layer or an encapsulation and electric components constructed with a layer of this type and comprising organic polymers” (priority 2003, published 2007).
# Marks after values point to notes of the source that are not given here.
# Assays:
# plasma hemostasis = assay: Thrombin time after intravenous administration; format: in vivo, rabbit
# Protocol: The investigations were performed on 72 rabbits of the “Chinchilla” breed with a mass of 2.5±0.3 kg, who were administered which solutions of compounds 2, 15, 21, 37 in doses of 15, 30 and 60 mg/kg intravenously. The experiments included the thrombin-test (series No. 7300) and the coagulability-test (series No. 5000) purchased from the scientific-and-production association (SPA) “Renam”, thromboplastin (series No. 240600) and calcium chloride purchased from the SPA “MedioLab”
# The static parameters of the blood and plasma coagulation (partial activated thromboplastin time, thrombin time, maximum coagulation activity (test for auto coagulation) were determined using the Behnk Electronic coagulometer (Germany). The operating principle of this instrument is based on the fact that the formed blood clot breaks the contacts of the pulse counter in the flask-pin circuit, said pin permanently oscillating in a vertical plane. The moment of formation of the clot is registered by stopping the stop watch hand.
# The measurements were effected at a constant temperature of 37° C. maintained by a temperature control unit.
# The “thrombin time” characterizes the rate of transformation of fibrinogen into fibrin. It was determined by measuring the coagulation time of plasma deprived of thrombocytes under the effect of thrombin standardized by the control plasma.
# 0.2 ml of a thrombin solution was added to 0.2 ml of the test blood plasma of experimental animals, from whom the blood was taken 15, 30, 60 and 120 minutes after the intravenous administration of compounds 2, 15, 21, 37 according to the invention in doses of 15, 30, 60 mg/kg incubated for 1 minute at a temperature of 37° C. and the time of formation of clot T2 in seconds in a coagulometer of the Behnk Electronic Company (Germany).
# [1] = system: indicator enzymes in blood plasma; assay: Morphine abstinence model: indicator enzymes AST, ALT, γ-GTP in blood plasma; format: in vivo, rats Wistar
# Protocol: (§1) The experiments were carried out on rats in series of 7 animals on each compound according to the invention. Non-morphinized animal with not administered with compounds according to the invention were used as a control group. […] Then the rats were decapitated, the blood from somnolent arteries was collected in test tubes with solution EDTA as an anticoagulant, centrifuged at 1500 g for 15 minutes at 4° C.
# To estimate possible hepatoprotective action of the compounds according to the invention under conditions of development of an oxidizing stress in the liver cells, effect of these compounds on the most important biochemical blood indexes, in particular, on the content in blood plasma of indicator enzyme of aspartateaminotransferase (AST), alanineaminotransferase (ALT), γ-glutamiletranspeptidase (γ-GTP) was investigated. The content of enzymes was estimated by their catalyzing activity in blood plasma.
# The activity of AST, ALT and γ-GTP was determined by means of diagnostic sets DiaSys, Germany.
# [2] = system: metabolism of nitrogen oxide; assay: Morphine abstinence model: nitrites and nitrates NOX− in blood plasma, liver and brain; format: in vivo, rats Wistar
# Protocol: as §1
# To estimate the intensity of metabolism of nitrogen oxide in rats, quantitative determination of stable metabolites of nitrogen oxide—nitrites and nitrates NOX^− in the blood plasma, supernatanates of the liver and thymus gland, a study was conducted by a spectrometric method, and in the brain supernatanates by a […] method.
# The spectrometric method is based the reaction of nitrites with the Griss reagent (a mixture of 2% solution of sulfanilamide and 0.2% N-(1-naphthyl)ethylene diamine. At the first step the nitrite reacts with sulfanilamide with formation of diazonium salt, and then with the second component to form azo dye with an adsorption maximum at 540 nm. For reduction of nitrates into nitrites, a fermentative method was used with bacterial reductase nitrate (Grisham M. B. et al., 1995). The samples of plasma and supernatant of the liver deproteinizated at 100° C. for 5 minutes incubated for 30 minutes at 37° C. in 50.0 mM of HEPES pH 7.4 in the presence of 0.2 unit/ml of Aspergillus reductase nitrate, 5.0 mkM of FAD and 0.1 mM of NAD-Ph. At the end of the reaction lactate dehydrogenase and pyruvate were added for isolation of NAD-Ph interfering with the Griss reaction. Then the Griss reagent was added and after 10-minute incubation the light absorption of the samples was measured at 540 nm. To amount of NOX^− was calculated using sodium nitrate as a standard.
# The fluorometric method is based on calculation of the nitrite level by the intensity fluorescence of 2,3-diaminonaphthotriazole, a product of reaction of 2,3-diaminonaphthalene (DAN) and nitrite in an acidic medium (Misko T. R., Schilling R. J., Salvemini D. et al. “A fluorometric assay for the measurement of nitrite of biological samples”. Anal. Biochem., 1993, v. 214, p. 11-16). The brain supernatants deproteinizated at 100° C. were placed in a nitrite regenerating system containing 0.125 unit/ml of nitrate reductases, 25 mkM NADPh and 25 mkM FAD prepared in a 20-mM Tris-HCl buffer with pH 7.6 and incubated for 30 minutes at 37° C. The lactatedehydrogenase/pyruvate system was used for oxidation of the NADPh. Then 316 mkM of the DAN solution in 0.62 M of hydrochloric acids were added and the mixture was incubated for 10 minutes in darkness.
# 280 mM of NaOH were added for stabilization of the fluorescence of the formed 2,3-diaminonaphthotriazole. The fluorescence intensity was measured in the spectrofluorimeter Hitachi F-3000 at a wavelength of excitation of 365 nm and an emission of 405 nm. The concentration of NOX^− in the brain was calculated by means of a standard solution of sodium nitrate.
# thymus = assay: Morphine abstinence model: thymus condition; format: in vivo, rats; conditions: morphinized rats then compound
# Protocol: The effect of the compounds according to the invention on the condition of the thymus of the rats was also investigated: a control group, an experimental group of morphinized animals and an experimental group of animals were first morphinized and then injected with the compounds according to the invention. The experiment was carried out similarly to that described above.
# [3] = compound alone 20.0 mg/kg intramuscularly
# [4] = morphinized rats then compound 20.0 mg/kg intramuscularly
smiles,measurement,setting,value
"O=c1[nH][nH]c(=O)c2c(Br)ncnc12.[K] [Compound 37, potassium salt of 4-bromine-pyrimido[4,5-D]-6H-pyridazine-5,8-dione]","T2, s After 120 minutes (thrombin time)",plasma hemostasis; dose 15.0 mg/kg intravenously,15.6* s
same,"T2, s after 15 minutes (thrombin time)",plasma hemostasis; dose 15.0 mg/kg intravenously,16.9* s
same,"T2, s after 30 minutes (thrombin time)",plasma hemostasis; dose 15.0 mg/kg intravenously,18.2* s
same,"T2, s after 60 minutes (thrombin time)",plasma hemostasis; dose 15.0 mg/kg intravenously,16.3* s
same,"T2, s After 120 minutes (thrombin time)",plasma hemostasis; dose 30.0 mg/kg intravenously,15.2* s
same,"T2, s after 15 minutes (thrombin time)",plasma hemostasis; dose 30.0 mg/kg intravenously,19.5* s
same,"T2, s after 30 minutes (thrombin time)",plasma hemostasis; dose 30.0 mg/kg intravenously,20.3* s
same,"T2, s after 60 minutes (thrombin time)",plasma hemostasis; dose 30.0 mg/kg intravenously,21.0* s
same,"T2, s After 120 minutes (thrombin time)",plasma hemostasis; dose 60.0 mg/kg intravenously,15.0* s
same,"T2, s after 15 minutes (thrombin time)",plasma hemostasis; dose 60.0 mg/kg intravenously,16.6* s
same,"T2, s after 30 minutes (thrombin time)",plasma hemostasis; dose 60.0 mg/kg intravenously,17.8* s
same,"T2, s after 60 minutes (thrombin time)",plasma hemostasis; dose 60.0 mg/kg intravenously,16.2* s
same,"ALT, Ci, mE/l, Control + compound",[1]; [3],113.84 ± 2.0 mE/l
same,"AST, Ci, mE/l, Control + compound",[1]; [3],174.82 ± 4.91 mE/l
same,"γ-GTP, Ci, mE/l, Control + compound",[1]; [3],8.14 ± 2.64 mE/l
same,"ALT, Ci, mE/l, control + Morphine + Compound",[1]; [4],120.84 ± 5.20 mE/l
same,"AST, Ci, mE/l, control + Morphine + Compound",[1]; [4],193.58 ± 14.18 mE/l
same,"γ-GTP, Ci, mE/l, control + Morphine + Compound",[1]; [4],10.32 ± 2.67 mE/l
same,"Nitrites in blood plasma, Control + Compound",[2]; [3],16.13 ± 1.80 mkmol/ml
same,"Nitrites in brain, Cortex of cerebrum, Control + Compound",[2]; [3],4.36 ± 0.24 nmol/mg of protein
same,"Nitrites in brain, Hypothalamus, Control + Compound",[2]; [3],6.79 ± 0.92 nmol/mg of protein
same,"Nitrites in brain, Mesencephalon, Control + Compound",[2]; [3],6.84 ± 0.56 nmol/mg of protein
same,"Nitrites in liver, Control + Compound",[2]; [3],0.262 ± 0.018 nmol/mg of protein
same,"Nitrites in blood plasma, Control + Morphine + compound",[2]; [4],15.33 ± 0.87 mkmol/ml
same,"Nitrites in brain, Cortex of cerebrum, Control + Morphine + compound",[2]; [4],4.77 ± 0.28 nmol/mg of protein
same,"Nitrites in brain, Hypothalamus, Control + Morphine + compound",[2]; [4],6.52 ± 0.83 nmol/mg of protein
same,"Nitrites in brain, Mesencephalon, Control + Morphine + compound",[2]; [4],5.63 ± 0.37 nmol/mg of protein
same,"Nitrites in liver, Control + Morphine + compound",[2]; [4],0.274 ± 0.01 nmol/mg of protein
same,"Nitrites, thymus Supernatant, Administration of morphine and compound",thymus,0.387 ± 0.01 nmol/mg of protein
same,"Thymus mass, Administration of morphine and compound",thymus,228 ± 15 mg
